This is an account of results in patent publication US7358056B1, “Methods for modulating signal transduction mediated by TGF-β and related proteins” (Signal Pharmaceuticals, priority 1999, dated 2008).

In one assay the test system is WWP1 WW domains. Put plainly: TRF binding assay of biotinylated PY motif peptides to GST-WW domain fusions. The note with it: for Interaction with WWP1 WW domains (TRF, peptide titration): GST-WW domains coated at 30 μg/mL overnight. Here is the method:
Each domain was individually expressed as a GST fusion protein. A TRF binding assay was used to evaluate interactions of PY motif peptides with these domains or GST alone. WW domains were bound to a 96-well polystyrene assay plate (Costar) overnight at 4° C. in a 200 mM carbonate buffer (Pierce, Rockford, Ill.) at different concentrations (0, 1, 3, 10 μg/mL). Unbound WW domain was washed away with distilled, deionized water and the plates were blocked with 1% BSA/carbonate buffer for 2 hours at room temperature. The plates were then washed with Tris/TWEEN® buffer: 50 mM Tris pH 7.5, 100 mM NaCl, 1 mM EDTA, 1% BSA, 1 mM DTT, 0.1% TWEEN® 20 detergent, protease inhibitor cocktail (Boehringer-Mannheim).
PY motif peptides were synthesized with a C6-linker and biotin tag.
These biotinylated peptides were solvated in Tris/TWEEN® buffer and added to the assay plates (30 μM). The plates were incubated at 4° C. for varying amounts of capture time. The plates were then washed with PBS/0.1% TRITON® X-100 detergent and probed for 1 hour at room temperature with 1 μg/mL Europium-labeled streptavidin (DELFIA; Wallac Oy, Turku, Finland) in DELFIA Assay Buffer/0.1% Triton X100. The unbound Europium-labeled streptavidin was washed with PBS/0.1% TRITON® X-100 detergent. Europium was released for time-resolved fluorescence measurements with the DELFIA Enhancement Buffer. Measurements were made on either the DELFIA 1234 or Victor fluorometers.
Smad PY motif peptides from Smad 1, 2, 3, 5, 6 and 7 (Table 1) were then evaluated with the WW domains from WWP1 (FIGS. 6A-6D and 7A-7B). The GST-WW domain fusion proteins and GST alone were coated at 30 μg/mL overnight. After blocking the wells with BSA, the WW domain peptides were titrated with the Smad PY motif peptides.

Assay [1] relates to E1 and E2s (ubc5c and ubc7). The assay can be described thus: Coupled ubiquitin assay, ubiquitination of active site cysteines of E1 and E2. The format is biochemical. To be noted: 20 mM DTT. How it is done: Recombinant E1 (ubc5c) and E2 (ubc7) components were obtained from BostonBiochem (Cambridge, Mass.). Radiolabeled ubiquitin was generated by PKA-mediated incorporation of [^32P]-phosphate from […] to the PKA site of the GST-Ub fusion protein (pGEX KG expression vector). The ubiquitin assay buffer (UbB) was as follows: 50 mM Tris pH 7.6, 1 mM ATP, 0.2 mM EDTA, 5 mM MgCl2, 1 unit inorganic pyrophosphatase, 0.005% TRITON® X-100 detergent and 1 μM staurosporine. In a 0.030 mL reaction, the following components were present: 50-200 ng E1, 0.1-1 μg E2 and 5 μg GST-Ub. […] Reactions were analyzed by SDS-PAGE. The ubiquitination of active site cysteine residues of E1 and E2s (ubc Sc and ubc 7) was observed (FIGS. 9A-9C).

The subject of the next assay is HA-tagged Smad1. Put plainly: BMP-induced Smad1 degradation in transfected COS cells (Western, anti-HA). The assay is classed as cell-based. The note with it: 100 ng BMP 4 hours, 50-100 μM LLF. Here is the method: HA-tagged Smad1 expression vector was transfected into COS cells. The transfected cells were then treated with 100 ng BMP for 4 hours in the absence or presence of 50-100 μM of the proteasome inhibitor Leu-Leu-Phe (LLF). The cells were lysed and equal amount of protein was loaded in each lane. Western analysis was performed using anti-HA antibody (BAbCo, Berkeley, Calif.).

The next assay has as its system Smad1. The assay can be described thus: In vivo ubiquitination of Smad1 in transfected COS cells (immunoprecipitation, Western). The assay is classed as cell-based. The note with it: COS cells treated with LLF, with or without BMP. How it is done: To assess the in vivo ubiquitination of Smad1, a Smad1 expression vector was transfected into COS cells. The transfected cells were treated with BMP and the proteasome inhibitor LLF, as described above. The cells were then lysed and equal amounts of protein were used for immunoprecipitation using anti-HA antibody, to precipitate tagged-Smad1 protein. The immunoprecipitated Smad1 was run on SDS-PAGE, followed by a Western blot using anti-HA antibody or anti-ubiquitin antibody (BAbCo).

Where a SMILES comes first, the peptide text is derived from it. Where no end group is shown, it is not given here. The star is where a group is joined. Biotin = O=C1N[C@H]2[C@H](CS[C@H]2CCCCC(=O)*)N1; Ahx = NCCCCCC(=O)O

“GPESPPPPYSRLSP (SEQ ID NO:21) (also: biotinylated) [Smad 6, biotinylated Smad6 PY motif peptide]”: the “Interaction with WWP1 WW domains (TRF, peptide titration)” value (“Interaction with WWP1 WW domains” for short) with WWP1 WW domains is “measurable interactions”.

Turning to `O[C@@H](CS)[C@@H](O)CS` [DTT], the “Formation of thioester intermediates (ubiquitinated E1 and E2)” value in assay [1] is “prevented the formation of the thioester intermediates”.

Turning to “{Biotin-Ahx}-PADTPPPAYLPPED-NH2 (SEQ ID NO:22) [Smad 1]”, in the assay with WWP1 WW domains, the “Interaction with WWP1 WW domains” value is “no measurable interaction”.

For the molecule “{Biotin-Ahx}-HPGTPPPPYTVGPG-NH2 (SEQ ID NO:28) [WBP1, reference compound]”, the “Binding to WWP1 WW domains (TRF)” value in the assay on WWP1 WW domains (peptide 30 μM, WW domains coated at 0, 1, 3, 10 μg/mL, GST alone as control) is reported as “bound specifically”.

For “IPETPPPGYISEDG (SEQ ID NO:24) (also: biotinylated) [Smad 2, biotinylated Smad2 PY motif peptide]”, the “Interaction with WWP1 WW domains” value in the assay with WWP1 WW domains is “no measurable interaction”.

As to `CC(C)C[C@H](NC(=O)[C@@H](N)CC(C)C)C(=O)N[C@@H](Cc1ccccc1)C(=O)O` [LLF, Leu-Leu-Phe] (H-Leu-Leu-Phe-OH), in the assay on HA-tagged Smad1, the “Effect on BMP-induced Smad1 degradation” value is on record as “blocks BMP-induced Smad1 degradation”. The “Accumulation of high molecular weight ubiquitinated Smad1” value in the assay on Smad1 was “accumulated more high molecular weight, ubiquitinated-Smad1 protein”.

On to “AGLTPPPGYLSEDG (SEQ ID NO:25) (also: biotinylated) [Smad 3, biotinylated Smad3 PY motif peptide]”, for which the “Interaction with WWP1 WW domains” value in the assay with WWP1 WW domains is “no measurable interaction”.

Take “PADTPPPAYMPPDD (SEQ ID NO:23) (also: biotinylated) [Smad 5, biotinylated Smad5 PY motif peptide]”: the “Interaction with WWP1 WW domains” value with WWP1 WW domains is given as “measurable interactions”.
